{
  "source": "patent US9303023B2",
  "about": "“Pyrazole and imidazole derivatives useful as orexin antagonists” (ACTELION PHARMACEUTICALS LTD., priority 2011, dated 2016)",
  "origin": "cited, not measured here",
  "key": {"[1]": {"conditions": "rat fear-potentiated startle paradigm"}, "[2]": {"conditions": "in vivo"}, "[3]": {"conditions": "mouse model of depression, administered chronically"}, "[4]": {"conditions": "rat model"}, "[5]": {"conditions": "rat"}, "[6]": {"conditions": "fasted hungry rats exposed to food odors"}, "amyloid-beta (Aβ)": {"test_system": "amyloid-beta (Aβ)", "conditions": "after acute sleep restriction, amyloid precursor protein transgenic mice"}},
  "data": [
    {"smiles": "COc1ccc(C[C@H]2c3cc(OC)c(OC)cc3CCN2[C@@H](C(=O)NC(C)C)c2ccccc2)cc1OC", "note": "[(R)-2-[(S)-1-(3,4-Dimethoxy-benzyl)-6,7-dimethoxy-3,4-dihydro-1H-isoquinolin-2-yl]-N-isopropyl-2-phenyl-acetamide]", "values": [
      {"measurement": "activity in conditioned fear model", "setting": "[1]", "value": "active"},
      {"measurement": "activity in animal model related to addictions", "setting": "[2]", "value": "active"}
    ]},
    {"smiles": "CNC(=O)[C@@H](c1ccccc1)N1CCc2cc(OC)c(OC)cc2[C@@H]1CCc1ccc(C(F)(F)F)cc1", "note": "[(2R)-2-{(1S)-6,7-dimethoxy-1-[2-(4-trifluoromethyl-phenyl)-ethyl]-3,4-dihydro-1H-isoquinolin-2-yl}-N-methyl-2-phenyl-acetamide]", "values": [
      {"measurement": "activity in conditioned fear model", "setting": "[1]", "value": "active"},
      {"measurement": "antidepressant-like activity", "setting": "[3]", "value": "induce antidepressant-like activity"},
      {"measurement": "memory function", "setting": "[4]", "value": "enhance memory function"},
      {"measurement": "alertness (active wake and locomotion)", "setting": "[5]", "value": "decrease alertness"},
      {"measurement": "time spent in both REM and NREM sleep", "setting": "[5]", "value": "dose-dependently increase"},
      {"measurement": "natural activation induced by orexin A", "setting": "[6]", "value": "attenuate the natural activation induced by orexin A"},
      {"measurement": "brain levels of amyloid-beta (Aβ) and Aβ plaque deposition", "setting": "amyloid-beta (Aβ)", "value": "decreased"}
    ]}
  ]
}
